SMILES	melting point [°C]
O=c1c2cc(Cl)ccc2nc(C(S)c2ncnc3[nH]cnc23)n1-c1ccccc1Cl (stereo not drawn)	237 to 238
CCOC(Cc1ccc(OCCN(C)c2nc3ccccc3o2)cc1)c1nc(C)no1 (stereo not drawn)	61 to 62
CN1C(=O)CCC2(C)C1=CCC1C2CCC2(C)C(O)CCC12 (stereo not drawn)	181 to 183
CCC(=O)N(Cc1cnc(Cl)s1)C(=N[N+](=O)[O-])NC	89 to 90
O=C1C2CC3CC1CC(c1cc(Br)ccc1O)(C3)C2	287 to 289
COC(=O)CCC(C)C1CC=C2C3=C(CCC21C)C1(C)CCC(O)C(C)(C)C1CC3 (stereo not drawn)	156 to 157
CCOC(=O)N1CCN(C(=CNc2cccc(OC)c2)C(=O)OC)CC1	120 to 122
O=C(O)C1=CCC(c2ccccc2)(c2ccccc2)CC1	227 to 229
CCCCCC(=O)n1c(=O)n(-c2ccc(OC)cc2)c(=O)n1C(=O)CCCCC	88 to 90
COc1ccc([C@H](Sc2cc(Oc3ccc4c(c3)OCO4)ccc2N)[C@@H](O)C(=O)O)cc1	112 to 113
CN(C)Cc1cc(C(=O)c2cccs2)cc(C2CCCCC2)c1O	105 to 106
CC(C(=O)N(C)C)n1nc(-c2ccccc2)c(Cl)c1Cl (stereo not drawn)	102 to 103
COc1ccc(C2(CCN3CCC(C(=O)c4nc5ccccc5s4)CC3)CCN(C(=O)c3ccccc3)C2)cc1OC (stereo not drawn)	74 to 76
O=c1oc2ncccc2n1CCBr	109 to 110
CCc1ccn(-c2ccc(S(C)(=O)=O)cc2)c1-c1ccc(F)cc1	107 to 108
CCCCOc1ccc(C(=O)Nc2ccc3cc(CN4CCN(C)CC4)cnc3c2C)cc1	145
N#Cc1nn(-c2c(Cl)cc(C(F)(F)F)cc2Cl)cc1C1C=CCCCC1 (stereo not drawn)	106 to 107
O=c1[nH]c2ncc(-c3cn[nH]c3)nc2n1CC1CCOCC1	238 to 240
Cc1cn(C(C)(C)C(=O)N(C)C)nc1-c1cccs1	116 to 119
COc1ccc(C2=NN(CCCCCCNC(=O)c3ccccc3C(N)=O)C(=O)[C@H]3CC=CC[C@@H]23)cc1OC (relative stereo)	104 to 105
COC(=O)c1c(I)ccc2c(=O)c3ccccc3[nH]c12	202 to 204
CC(C)(C)OC(=O)N1CCC2(CC1)CC(c1ccc(CNS(C)(=O)=O)c(F)c1)=NO2	178 to 182
Cc1cc(C)nc(NC(=O)NS(=O)(=O)c2sccc2-c2ccon2)n1	172 to 173
N#CCc1ccc(C(=O)c2ccc(Cl)cc2)n1Cc1ccccc1	104 to 106
CCC1(CCCCN2CCN(c3ccc(Cl)cc3)CC2)C(=O)Nc2ccccc21 (stereo not drawn)	145 to 146
CC1CN2CC(=O)N(C)c3ccc(Cl)cc3C2(c2ccccc2)O1 (stereo not drawn)	142 to 143

Continued, values first:

melting point [°C]	SMILES
65 to 67	O=C(NCCSCc1ccccc1)c1ccccc1
210	CC(SC1COC(c2ccc(C(=O)Nc3ccc(C(F)(F)F)cc3)cc2)OC1)C(O)(Cn1cncn1)c1ccc(F)cc1F (stereo not drawn)
200 to 202	CN1C2=NCCN2C(=O)c2cc(Cl)ccc21
165 to 167	CNc1cc(C(=O)CS(C)(=O)=O)cc(NC)c1Cl
161 to 162	CCc1cc(Nc2cc(Cl)c(C(F)(F)F)cc2[N+](=O)[O-])c(OC)cc1OC
96	CCOC(=O)C(C)OCc1cc2nc(C(F)(F)F)ccc2n1S(=O)(=O)c1ccc2ncsc2c1 (stereo not drawn)
151 to 152	CC(C)(C)OC(=O)N1CCN2C(=O)OC(c3ccccc3)(c3ccccc3)C2C1 (stereo not drawn)
174 to 176	CN(C)CCCn1c2c(c3ccccc31)CC(O)CC2 (stereo not drawn)
155	COc1ccc(NC(=N)N2CCCCC2)c(-c2ccccc2)c1
200 to 204	CC(C)C[C@H](NC(=O)[C@H](Cc1cccc2ccccc12)NC(=O)OCc1ccccc1)C(=O)NN
147 to 148	CCOC(=O)c1c(C)nc2cc(OC)c(OC)cc2c1-c1ccc(OC)c(OC)c1
122 to 125	CC(=O)OC1CSC(Oc2cncc(-c3ccnc(F)c3)c2)C(OC(C)=O)C1OC(C)=O (stereo not drawn)

From a melting point compilation (Tetko et al.; mined from patent text by program, amines drawn as free bases though some values may be those of a salt)
